US12077503B2, “Substituted cyclic amides and their use as herbicides” (FMC CORPORATION, priority 2015, dated 2024)

Tests used:
Format in all cases: in vivo
[1] = system: ragweed (common ragweed, Ambrosia elatior); assay: Test A postemergence; conditions: Ambrosia artemisiifolia, post-emergence, 240 h, postemergence; for pest or weed control at 125 g/ha: 125 g ai/ha, visual injury vs untreated controls after approx. 10 d, 0 = no effect, 100 = complete control, read-out: Ragweed plant response rating (0 to 100 scale); for pest or weed control at 500 g/ha: 500 g ai/ha, 0 to 100 scale, 0 is no effect, 100 is complete control, read-out: Ragweed plant response rating
Outline: (§1)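 Greenhouse, ~10 d after spray; visual injury vs untreated controls, 0 = no effect, 100 = complete control. Preemergence: directed soil spray over planted seeds. Postemergence: plants 2–10 cm, 1–2 leaf stage. Loam/sand blend. Compound in non-phytotoxic solvent with surfactant.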

[2] = system: pigweed (Amaranthus retroflexus); assay: Test A postemergence; conditions: Amaranthus retroflexus, post-emergence, 240 h, postemergence; for pest or weed control at 125 g/ha: 125 g ai/ha, visual injury vs untreated controls after approx. 10 d, 0 = no effect, 100 = complete control, read-out: Pigweed plant response rating (0 to 100 scale); for pest or weed control at 500 g/ha: 500 g ai/ha, 0 to 100 scale, 0 is no effect, 100 is complete control, read-out: Pigweed plant response rating
Outline: as §1

[3] = system: blackgrass (Alopecurus myosuroides); assay: Test A postemergence; conditions: Alopecurus myosuroides, post-emergence, 240 h, postemergence; for pest or weed control at 125 g/ha: 125 g ai/ha, visual injury vs untreated controls after approx. 10 d, 0 = no effect, 100 = complete control, read-out: Blackgrass plant response rating (0 to 100 scale); for pest or weed control at 500 g/ha: 500 g ai/ha, 0 to 100 scale, 0 is no effect, 100 is complete control, read-out: Blackgrass plant response rating
Outline: as §1

[4] = system: Kochia (Kochia scoparia); assay: Test A postemergence; conditions: Bassia scoparia, post-emergence, 240 h, postemergence; for pest or weed control at 125 g/ha: 125 g ai/ha, visual injury vs untreated controls after approx. 10 d, 0 = no effect, 100 = complete control, read-out: Kochia plant response rating (0 to 100 scale); for pest or weed control at 500 g/ha: 500 g ai/ha, 0 to 100 scale, 0 is no effect, 100 is complete control, read-out: Kochia plant response rating
Outline: as §1

[5] = system: corn (Zea mays); assay: Test A postemergence; conditions: Zea mays, post-emergence, 240 h, postemergence; for plant injury at 125 g/ha: 125 g ai/ha, visual injury vs untreated controls after approx. 10 d, 0 = no effect, 100 = complete control, read-out: Corn plant response rating (0 to 100 scale); for plant injury at 500 g/ha: 500 g ai/ha, 0 to 100 scale, 0 is no effect, 100 is complete control, read-out: Corn plant response rating
Outline: as §1

[6] = system: giant foxtail (Setaria faberii); assay: Test A postemergence; conditions: Setaria faberi, post-emergence, 240 h, postemergence; for pest or weed control at 125 g/ha: 125 g ai/ha, visual injury vs untreated controls after approx. 10 d, 0 = no effect, 100 = complete control, read-out: Foxtail, Giant plant response rating (0 to 100 scale); for pest or weed control at 500 g/ha: 500 g ai/ha, 0 to 100 scale, 0 is no effect, 100 is complete control, read-out: Foxtail, Giant plant response rating
Outline: as §1

[7] = system: Galium (catchweed bedstraw, Galium aparine); assay: Test A postemergence; conditions: Galium, post-emergence, 240 h, postemergence; for pest or weed control at 125 g/ha: 125 g ai/ha, visual injury vs untreated controls after approx. 10 d, 0 = no effect, 100 = complete control, read-out: Galium plant response rating (0 to 100 scale); for pest or weed control at 500 g/ha: 500 g ai/ha, 0 to 100 scale, 0 is no effect, 100 is complete control, read-out: Galium plant response rating
Outline: as §1

[8] = system: barnyardgrass (Echinochloa crus-galli); assay: Test A postemergence; conditions: Echinochloa crus-galli, post-emergence, 240 h, postemergence; for pest or weed control at 125 g/ha: 125 g ai/ha, visual injury vs untreated controls after approx. 10 d, 0 = no effect, 100 = complete control, read-out: Barnyardgrass plant response rating (0 to 100 scale); for pest or weed control at 500 g/ha: 500 g ai/ha, 0 to 100 scale, 0 is no effect, 100 is complete control, read-out: Barnyardgrass plant response rating
Outline: as §1

[9] = system: ryegrass, Italian (Italian ryegrass, Lolium multiflorum); assay: Test A postemergence; conditions: Lolium multiflorum, post-emergence, 240 h, postemergence; for pest or weed control at 125 g/ha: 125 g ai/ha, visual injury vs untreated controls after approx. 10 d, 0 = no effect, 100 = complete control, read-out: Ryegrass, Italian plant response rating (0 to 100 scale); for pest or weed control at 500 g/ha: 500 g ai/ha, 0 to 100 scale, 0 is no effect, 100 is complete control, read-out: Ryegrass, Italian plant response rating
Outline: as §1

[10] = system: wheat (Triticum aestivum); assay: Test A postemergence; conditions: Triticum aestivum, post-emergence, 240 h, postemergence; for plant injury at 125 g/ha: 125 g ai/ha, visual injury vs untreated controls after approx. 10 d, 0 = no effect, 100 = complete control, read-out: Wheat plant response rating (0 to 100 scale); for plant injury at 500 g/ha: 500 g ai/ha, 0 to 100 scale, 0 is no effect, 100 is complete control, read-out: Wheat plant response rating
Outline: as §1

[11] = system: ragweed (common ragweed, Ambrosia elatior); assay: Test A preemergence; conditions: Ambrosia artemisiifolia, pre-emergence, 240 h, preemergence, 0 to 100 scale where 0 is no effect and 100 is complete control, read-out: Ragweed plant response rating; for pest or weed control at 125 g/ha: 125 g ai/ha, visual injury rating, approximately 10 d; for pest or weed control at 500 g/ha: 500 g ai/ha
Outline: as §1

[12] = system: pigweed (Amaranthus retroflexus); assay: Test A preemergence; conditions: Amaranthus retroflexus, pre-emergence, 240 h, preemergence, 0 to 100 scale where 0 is no effect and 100 is complete control, read-out: Pigweed plant response rating; for pest or weed control at 125 g/ha: 125 g ai/ha, visual injury rating, approximately 10 d; for pest or weed control at 500 g/ha: 500 g ai/ha
[13] = system: Kochia (Kochia scoparia); assay: Test A preemergence; conditions: Bassia scoparia, pre-emergence, 240 h, preemergence, 0 to 100 scale where 0 is no effect and 100 is complete control, read-out: Kochia plant response rating; for pest or weed control at 125 g/ha: 125 g ai/ha, visual injury rating, approximately 10 d; for pest or weed control at 500 g/ha: 500 g ai/ha
Outline: as §1

[14] = system: giant foxtail (Setaria faberii); assay: Test A preemergence; conditions: Setaria faberi, pre-emergence, 240 h, preemergence, 0 to 100 scale where 0 is no effect and 100 is complete control, read-out: Foxtail, Giant plant response rating; for pest or weed control at 125 g/ha: 125 g ai/ha, visual injury rating, approximately 10 d; for pest or weed control at 500 g/ha: 500 g ai/ha
Outline: as §1

[15] = system: barnyardgrass (Echinochloa crus-galli); assay: Test A preemergence; conditions: Echinochloa crus-galli, pre-emergence, 240 h, preemergence, 0 to 100 scale where 0 is no effect and 100 is complete control, read-out: Barnyardgrass plant response rating; for pest or weed control at 125 g/ha: 125 g ai/ha, visual injury rating, approximately 10 d; for pest or weed control at 500 g/ha: 500 g ai/ha
Outline: as §1

[16] = system: ryegrass, Italian (Italian ryegrass, Lolium multiflorum); assay: Test A preemergence; conditions: Lolium multiflorum, pre-emergence, 240 h, preemergence, 0 to 100 scale where 0 is no effect and 100 is complete control, read-out: Ryegrass, Italian plant response rating; for pest or weed control at 125 g/ha: 125 g ai/ha, visual injury rating, approximately 10 d; for pest or weed control at 500 g/ha: 500 g ai/ha
Outline: as §1

Row | SMILES | pest or weed control at 125 g/ha [1] [%] | pest or weed control at 500 g/ha [1] [%] | pest or weed control at 125 g/ha [2] [%] | pest or weed control at 500 g/ha [2] [%] | pest or weed control at 125 g/ha [3] [%] | pest or weed control at 500 g/ha [3] [%] | pest or weed control at 125 g/ha [4] [%] | pest or weed control at 500 g/ha [4] [%] | plant injury at 125 g/ha [5] [%] | plant injury at 500 g/ha [5] [%] | pest or weed control at 125 g/ha [6] [%] | pest or weed control at 500 g/ha [6] [%] | pest or weed control at 125 g/ha [7] [%] | pest or weed control at 500 g/ha [7] [%] | pest or weed control at 125 g/ha [8] [%] | pest or weed control at 500 g/ha [8] [%] | pest or weed control at 125 g/ha [9] [%] | pest or weed control at 500 g/ha [9] [%] | plant injury at 125 g/ha [10] [%] | plant injury at 500 g/ha [10] [%] | also measured
1 | N#Cc1ccc([C@H]2CNC(=O)[C@@H]2C(=O)Nc2cccc(F)c2F)cc1 [Compound 1206] | 0 | 0 | 0 | 30 | 0 | 0 | 50 | 50 | 0 | 0 | 50 | 80 | 30 | 50 | 70 | 100 | 0 | 0 | 0 | 0 | pest or weed control at 125 g/ha [11]: 0%; pest or weed control at 500 g/ha [11]: 60%; pest or weed control at 125 g/ha [12]: 50%; pest or weed control at 500 g/ha [12]: 90%; pest or weed control at 125 g/ha [13]: 60%; pest or weed control at 500 g/ha [13]: 100%; pest or weed control at 125 g/ha [14]: 80%; pest or weed control at 500 g/ha [14]: 90%; pest or weed control at 125 g/ha [15]: 70%; pest or weed control at 500 g/ha [15]: 100%; pest or weed control at 125 g/ha [16]: 0%; pest or weed control at 500 g/ha [16]: 0%
2 | CN1CC[C@H](c2ccc(C(F)(F)F)cc2)[C@@H](C(=O)Nc2ccc(F)c(F)c2F)C1=O [Compound 1226] | 0 | 50 | 20 | 60 | 20 | 30 | 60 | 60 | 30 | 70 | 80 | 80 | 80 | 80 | 100 | 100 | 0 | 0 | 0 | 0 | pest or weed control at 125 g/ha [11]: 0%; pest or weed control at 500 g/ha [11]: 30%; pest or weed control at 125 g/ha [12]: 80%; pest or weed control at 500 g/ha [12]: 90%; pest or weed control at 125 g/ha [13]: 60%; pest or weed control at 500 g/ha [13]: 70%; pest or weed control at 125 g/ha [14]: 100%; pest or weed control at 500 g/ha [14]: 100%; pest or weed control at 125 g/ha [15]: 90%; pest or weed control at 500 g/ha [15]: 100%; pest or weed control at 125 g/ha [16]: 80%; pest or weed control at 500 g/ha [16]: 80%
